Measured values: patent US20150307938A1, “METHOD TO IDENTIFY A NOVEL CLASS OF IMMUNOLOGIC ADJUVANTS” (Lancell, L.L.C., priority 2011, published 2015)
Several values for one entry are separate records, joined by “and”; a condition that tells them apart may be missing. Equal values may be shown once.

Test system: skin
Assay: Affymetrix microarray of skin, DBP-4 hr and analogs vs. untreated; gene selection by log-2 fold change, Wilcoxon, Kendall tau (Tables 8, 9)
Assay type: in vivo, mouse
Settings: mouse, in vivo

CCCCOC(=O)c1ccccc1C(=O)OCCCC [DBP, dibutylphthalate]
DBP LogFold-Change Versus-Untreated: Csrp1: 0.81
DBP LogFold-Change Versus-Untreated: Cxcl1: 5.43
DBP LogFold-Change Versus-Untreated: Cxcl2: 4.56
DBP LogFold-Change Versus-Untreated: Cxcl16: 1.35
DBP LogFold-Change Versus-Untreated: Cyr61: 1.59
DBP LogFold-Change Versus-Untreated: Cytip: 1.19
DBP LogFold-Change Versus-Untreated: Deptor: 0.99
DBP LogFold-Change Versus-Untreated: Dusp6: 1.81
DBP LogFold-Change Versus-Untreated: Dusp7: 1.07
DBP LogFold-Change Versus-Untreated: Efhd2: 0.82
DBP LogFold-Change Versus-Untreated: Egr1: 1.50
DBP LogFold-Change Versus-Untreated: Eif1a: 0.97
DBP LogFold-Change Versus-Untreated: Epgn: 3.82
DBP LogFold-Change Versus-Untreated: Epha2: 0.82
DBP LogFold-Change Versus-Untreated: Errfi1: 0.89
DBP LogFold-Change Versus-Untreated: F2rl1: 0.78
DBP LogFold-Change Versus-Untreated: Fam43a: 0.81
DBP LogFold-Change Versus-Untreated: Fgfbp1: 1.01
DBP LogFold-Change Versus-Untreated: Fkbp5: 1.19
DBP LogFold-Change Versus-Untreated: Fosl1: 1.95
DBP LogFold-Change Versus-Untreated: Gjb2: 1.21
DBP LogFold-Change Versus-Untreated: Gpr35: 0.91
DBP LogFold-Change Versus-Untreated: Gpr65: 1.35
DBP LogFold-Change Versus-Untreated: Gyk: 1.00
DBP LogFold-Change Versus-Untreated: Gzmb: 1.30
DBP LogFold-Change Versus-Untreated: Havcr2: 1.89
DBP LogFold-Change Versus-Untreated: Hbegf: 1.76
DBP LogFold-Change Versus-Untreated: Hdc: 2.14
DBP LogFold-Change Versus-Untreated: Icam1: 2.66
DBP LogFold-Change Versus-Untreated: Ier2: 1.02
DBP LogFold-Change Versus-Untreated: Ier3: 1.85
DBP LogFold-Change Versus-Untreated: Il1b: 2.73
DBP LogFold-Change Versus-Untreated: Il1rl1: 0.91
DBP LogFold-Change Versus-Untreated: Il4ra: 0.81
DBP LogFold-Change Versus-Untreated: Il6: 3.05
DBP LogFold-Change Versus-Untreated: Il7r: 1.15
DBP LogFold-Change Versus-Untreated: Il10ra: 0.90
DBP LogFold-Change Versus-Untreated: Irs2: 0.94
DBP LogFold-Change Versus-Untreated: Jun: 1.06
DBP LogFold-Change Versus-Untreated: Junb: 1.39
DBP LogFold-Change Versus-Untreated: Kctd11: 0.80
DBP LogFold-Change Versus-Untreated: Klrb 1b: 1.25
DBP LogFold-Change Versus-Untreated: Krt6a: 1.53
DBP LogFold-Change Versus-Untreated: Krt35: 1.06
DBP LogFold-Change Versus-Untreated: LOC100504977: 3.10
DBP LogFold-Change Versus-Untreated: Map3k6: 1.03
DBP LogFold-Change Versus-Untreated: Map3k8: 1.01
DBP LogFold-Change Versus-Untreated: Mt1: 1.34
DBP LogFold-Change Versus-Untreated: Mt2: 1.11
DBP LogFold-Change Versus-Untreated: Nfil3: 1.60
DBP LogFold-Change Versus-Untreated: Nfkb2: 0.94
DBP LogFold-Change Versus-Untreated: Nr4a1: 2.09
DBP LogFold-Change Versus-Untreated: Nr4a2: 1.39
DBP LogFold-Change Versus-Untreated: Osmr: 0.95
DBP LogFold-Change Versus-Untreated: Otud7a: 1.25
DBP LogFold-Change Versus-Untreated: Pde4b: 1.44
DBP LogFold-Change Versus-Untreated: Plaur: 1.06
DBP LogFold-Change Versus-Untreated: Plk3: 1.00
DBP LogFold-Change Versus-Untreated: Pmaip1: 1.47
DBP LogFold-Change Versus-Untreated: Pprc1: 0.78
DBP LogFold-Change Versus-Untreated: Pqlc1: 0.87
DBP LogFold-Change Versus-Untreated: Prss22: 1.61
DBP LogFold-Change Versus-Untreated: Ptges: 1.22
DBP LogFold-Change Versus-Untreated: Pvr: 0.90
DBP LogFold-Change Versus-Untreated: Pyy: 2.62
DBP LogFold-Change Versus-Untreated: Rab20: 1.52
DBP LogFold-Change Versus-Untreated: Ramp3: 1.20
DBP LogFold-Change Versus-Untreated: Rgs1: 2.12
DBP LogFold-Change Versus-Untreated: Rnf19b: 1.15
DBP LogFold-Change Versus-Untreated: Serpine1: 2.68
DBP LogFold-Change Versus-Untreated: Slc7a5: 1.52
DBP LogFold-Change Versus-Untreated: Slc10a6: 1.33
DBP LogFold-Change Versus-Untreated: Slc25a25: 1.16
DBP LogFold-Change Versus-Untreated: Slc39a8: 1.52
DBP LogFold-Change Versus-Untreated: Slc39a14: 0.84
DBP LogFold-Change Versus-Untreated: Smox: 1.30 and 1.29 and 1.28
DBP LogFold-Change Versus-Untreated: Socs2: 1.26
DBP LogFold-Change Versus-Untreated: Socs3: 1.39
DBP LogFold-Change Versus-Untreated: Sprr1a: 1.43
DBP LogFold-Change Versus-Untreated: Stc1: 1.07
DBP LogFold-Change Versus-Untreated: Stk17b: 0.89
DBP LogFold-Change Versus-Untreated: Tnfaip2: 1.94
DBP LogFold-Change Versus-Untreated: Tnfaip3: 2.10
DBP LogFold-Change Versus-Untreated: Tnfaip6: 2.30
DBP LogFold-Change Versus-Untreated: Traf1: 1.07
DBP LogFold-Change Versus-Untreated: Uap1: 1.11
DBP LogFold-Change Versus-Untreated: Zbtb16: 1.04
DBP LogFold-Change Versus-Untreated: Zfp36: 1.53
DBP LogFold-Change Versus-Untreated: Zfp593: 1.01
Dbp NM_016974_at ≧2-Fold change: No
Deptor NM_001037937_at ≧2-Fold change: No
Dlgap4 NM_001042487_at ≧2-Fold change: No
Dlgap4 NM_001042488_at ≧2-Fold change: No
Dusp6 (NM_026268_at) ≧2-Fold change: Yes
Dusp7 (NM_153459_at) ≧2-Fold change: Yes
Ear5 NM_019398_at ≧2-Fold change: No
Epgn (NM_053087_at) ≧2-Fold change: Yes
Fam134b NM_001034851_at ≧2-Fold change: No
Gcdh NM_001044744_at ≧2-Fold change: No
Gm10228 XM_001474297_at ≧2-Fold change: No
Gm10228 XM_003086004_at ≧2-Fold change: No
Gm10229 XM_003086003_at ≧2-Fold change: No
Gsdmc NM_031378_at ≧2-Fold change: No
Gzmb (NM_013542_at) ≧2-Fold change: Yes
H19 NR_001592_at ≧2-Fold change: No
Havcr2 (NM_134250_at) ≧2-Fold change: Yes
Ier2 (NM_010499_at) ≧2-Fold change: Yes
Ier3 (NM_133662_at) ≧2-Fold change: Yes
Ifi202b (NM_011940_at) ≧2-Fold change: Yes
Il1f6 (NM_019450_at) ≧2-Fold change: Yes
Il1rl1 NM_001025602_at ≧2-Fold change: No
Il6 (NM_031168_at) ≧2-Fold change: Yes
Il20 (NM_021380_at) ≧2-Fold change: Yes
Inpp5a NM_001127363_at ≧2-Fold change: No
Inpp5d NM_001110192_at ≧2-Fold change: No
Inpp5d NM_001110193_at ≧2-Fold change: No
Jdp2 (NM_030887_at) ≧2-Fold change: Yes
Jun (NM_010591_at) ≧2-Fold change: Yes
Klhdc5 NM_001081237_at ≧2-Fold change: No
Klk6 (NM_011177_at) ≧2-Fold change: Yes
Klrb1b (NM_030599_at) ≧2-Fold change: Yes
Krt25 (NM_133730_at) ≧2-Fold change: Yes
Krt27 (NM_010666_at) ≧2-Fold change: Yes
Krt33a NM_027983_at ≧2-Fold change: No
Krt34 NM_027563_at ≧2-Fold change: No
Krt35 (NM_016880_at) ≧2-Fold change: Yes
Krt71 (NM_019956_at) ≧2-Fold change: Yes
Krtap1-5 NM_027157_at ≧2-Fold change: No
Krtap3-1 NM_023511_at ≧2-Fold change: No
Krtap3-3 NM_025524_at ≧2-Fold change: No
Krtap4-2 NM_026807_at ≧2-Fold change: No
Krtap4-16 (NM_001013823_at) ≧2-Fold change: No
Krtap5-2 NM_027844_at ≧2-Fold change: No
Krtap9-3 NM_029351_at ≧2-Fold change: No
Krtap13-1 NM_183189_at ≧2-Fold change: No
Krtap16-1 NM_130870_at ≧2-Fold change: No
Krtap16-5 NM_130857_at ≧2-Fold change: No
Krtap16-7 NM_028621_at ≧2-Fold change: No
Krtap16-8 NM_130856_at ≧2-Fold change: No
Krtap16-9 NM_130876_at ≧2-Fold change: No
Krtap16-10 NM_183296_at ≧2-Fold change: No
Krtap28-13 XM_896507_at ≧2-Fold change: No
Krtap28-13 XM_919110_at ≧2-Fold change: No
LOC100044068 (XM_001473873_at) ≧2-Fold change: Yes
LOC100503254 XM_003085741_at ≧2-Fold change: No
LOC100504977 (XM_003085794_at) ≧2-Fold change: Yes
Lmod2 NM_053098_at ≧2-Fold change: No
Lyz2 NM_017372_at ≧2-Fold change: No
Maff (NM_010755_at) ≧2-Fold change: Yes
Map3k6 (NM_016693_at) ≧2-Fold change: Yes
Mcoln2 (NM_026656_at) ≧2-Fold change: Yes
Mfhas1 NM_001081279_at ≧2-Fold change: No
Mfsd4 NM_001114662_at ≧2-Fold change: No
Mia1 NM_019394_at ≧2-Fold change: No
Mrpl44 NM_001081210_at ≧2-Fold change: No
Ms4a6d NM_026835_at ≧2-Fold change: No
Mt1 (NM_013602_at) ≧2-Fold change: Yes
Mylpf NM_016754_at ≧2-Fold change: No
Myoz2 NM_021503_at ≧2-Fold change: No
NA (AFFX-18SRNAMur/X00686_3_at) ≧2-Fold change: No
NA (AFFX-18SRNAMur/X00686_5_at) ≧2-Fold change: No
NA (AFFX-18SRNAMur/X00686_M_at) ≧2-Fold change: No
NA (AFFX-BioB-3_at) ≧2-Fold change: No
NA (AFFX-BioB-5_at) ≧2-Fold change: No
NA (AFFX-BioB-M_at) ≧2-Fold change: No
NA (AFFX-BioC-3_at) ≧2-Fold change: No
NA (AFFX-BioC-5_at) ≧2-Fold change: No
NA (AFFX-BioDn-3_at) ≧2-Fold change: No
NA (AFFX-BioDn-5_at) ≧2-Fold change: No
NA (AFFX-ThrX-5_at) ≧2-Fold change: No
Ncbp1 NM_001033201_at ≧2-Fold change: No
Nfil3 (NM_017373_at) ≧2-Fold change: Yes
Nfkbia (NM_010907_at) ≧2-Fold change: Yes
Nfkbiz (NM_030612_at) ≧2-Fold change: Yes
Nolc1 NM_001039351_at ≧2-Fold change: No
Nolc1 NM_001039352_at ≧2-Fold change: No
Nolc1 NM_001039353_at ≧2-Fold change: No
Nr4a2 (NM_013613_at) ≧2-Fold change: Yes
